Assays:
[1] = aqueous solubility of the polymorphic form; assay type: physicochemical; conditions: Form A as prepared by the procedures of the '479 patent
[2] = bioavailability of the polymorphic form; conditions: Form A as prepared by the procedures of the '479 patent
[3] = DSC thermogram of combined Forms A, B and C (melting points compared, solubility inferred); assay type: physicochemical; conditions: 10° C. per minute, nitrogen purge, FIG. 8
Method: DSC data were generated using a Mettler-Toledo DSC 821^e (Columbus, Ohio) with a Julabo FT900 intercooler chiller (Julabo Company; Allentown, Pa.). In general, samples were analyzed in a vented, sealed aluminum pan. Because the endothermic peak may vary depending upon the rate of heating and the calibration and precision of the instrument, with the amount of peak variation dependent upon the heating rate used, all thermograms included herein were run under the same, consistent conditions: heating at 10° C. per minute under a nitrogen purge at 40 mL/minute.
FIG. 8 illustrates a DSC thermogram for the combination of Form A, Form B and Form C having a second heating cycle with a maximum temperature of about 110° C. with a holding time of about 30 minutes. The peaks in the third heating cycle show a Form A to Form B to Form C peak area ratio of approximately 8:2:1, respectively, with the relative amount of Form A, Form B and Form C further variable on the heat of enthalpy of each polymorphic form.

[4] = stability of the crystalline form; assay type: physicochemical
[5] = DSC reheating of disturbed (scratched/stressed) sample: solid state phase transformation to Form A; assay type: physicochemical; conditions: DSC heating from 30° C. to approximately 200° C. at 10° C. per minute
Method: DSC data were generated using a Mettler-Toledo DSC 821^e (Columbus, Ohio) with a Julabo FT900 intercooler chiller (Julabo Company; Allentown, Pa.). In general, samples were analyzed in a vented, sealed aluminum pan. Because the endothermic peak may vary depending upon the rate of heating and the calibration and precision of the instrument, with the amount of peak variation dependent upon the heating rate used, all thermograms included herein were run under the same, consistent conditions: heating at 10° C. per minute under a nitrogen purge at 40 mL/minute. The resultant sample of Example 1A was disturbed with scratching, which caused the cilostazol sample to undergo a solid state phase transformation at approximately 119° C. followed by an endotherm of melt at approximately 160° C. (Form A) during heating by DSC from 30° C. to approximately 200° C. at 10° C. per minute. When the sample is stressed and reheated (as detailed in Example 2A), the sample undergoes a solid state phase transformation at approximately 147° C. followed by an endotherm of melt at about 160° C. (Form A) during heating by DSC from 30° C. to approximately 200° C. at 10° C. per minute. This disturbance of sample is believed to induce nucleation which preferentially causes Form A of cilostazol to form upon heating.

SMILES | aqueous solubility [1] | bioavailability [2] | solubility relative to Form A, suggested by lower melting point in DSC [3] | stability of the polymorphic form [4] | temperature of solid state phase transformation to Form A [5]
O=C1CCc2cc(OCCCCc3nnnn3C3CCCCC3)ccc2N1 [Form A, 6-[4-(1-cyclohexyl-1H-tetrazol-5-yl)butoxy]-3,4-dihydro-2(1H)-quinolinone] | low aqueous solubility | low bioavailability | – | – | –
O=C1CCc2cc(OCCCCc3nnnn3C3CCCCC3)ccc2N1 [Form B, 6-[4-(1-cyclohexyl-1H-tetrazol-5-yl)butoxy]-3,4-dihydro-2(1H)-quinolinone] | – | – | more soluble than Form A | stable | approximately 119 °C
O=C1CCc2cc(OCCCCc3nnnn3C3CCCCC3)ccc2N1 [Form C, 6-[4-(1-cyclohexyl-1H-tetrazol-5-yl)butoxy]-3,4-dihydro-2(1H)-quinolinone] | – | – | more soluble than Form A | stable | approximately 147 °C
